Laboratory results taken from patent US20210379204A1, “METHOD FOR CALCULATING TOLERANCE DOSE OF HUMAN BODY TO SUGAR ALCOHOL AND FUNCTIONAL SUGAR” (Zhejiang Huakang Pharmaceutical Co., Ltd., priority 2018, published 2021).

Tests used:
[1] = tolerated dose of a 70 kg human body converted from the rat maximum tolerated dose (K = 56.0); settings: rat dose N x conversion factor 56.0
Text: wherein K is a conversion factor between a 70 kg human body and a 200 g rat, which is 56.0; the maximum tolerated dose N of the rat to xylitol and the tolerated dose R of the human body to the xylitol are both in the unit of g/d; or,
wherein K is a conversion factor between a 70 kg human body and a 200 g rat, which is 56.0. The maximum tolerated dose N of the rat to xylitol and the tolerated dose R of the human body to the xylitol are both in the unit of g/d; or,
In the specific implementation, the maximum tolerated dose of the human body to a certain sugar alcohol or functional sugar recorded in the existing data is used as a reference value firstly. Taking xylitol as an example, the existing companies have declared that the daily intake of xylitol should not exceed 50 g. 50 g of xylitol is set as the reference value, and fluctuation is performed based on the reference value to obtain an estimated value of the experimental range. […] The experiment is continued for 14 days. Considering the experimental results and verification results comprehensively, the maximum tolerated dose N of 200 g rats to xylitol is obtained.

[2] = 200 g rats, gavage each day, 14 days; maximum dose group in which no rat has diarrhea on day 14
Text: at step 2, continuing the step 1 for 14 days;
At step 1, 200 g rats are selected as experimental animal objects, and the 200 g rats are divided into six experimental groups and one control group, with each group including ten numbered rats; and the rats in the six experimental groups (namely, dose (1) experimental group, dose (2) experimental group, dose (3) experimental group, dose (4) experimental group, dose (5) experimental group and dose (6) experimental group) are gavaged with different doses of xylitol each day. The ten rats in each group are gavaged with the same dose.
At step 2, the step 1 is continued for 14 days.
Specifically, 50 g of xylitol was set as the reference value, and estimated values of the experimental range of the human body to xylitol were set to 20 g/d, 30 g/d, 40 g/d, 50 g/d, 60 g/d and 70 g/d (six groups in total) according to the reference value. According to the conversion formula of drug doses of experimental animal and human body, the daily experimental dose of xylitol of 200 g rats was respectively obtained as 0.36 g/d, 0.54 g/d, 0.71 g/d, 0.89 g/d, 1.07 g/d and 1.25 g/d (six groups in total), and then experiments were performed respectively.
Similarly, estimated values of the human body to L-arabinose were respectively set to 70 g/d, 80 g/d, 90 g/d, 100 g/d, 110 g/d and 120 g/d (six groups in total) as the experimental range. According to the conversion formula of drug doses of experimental animal and human body, the daily experimental dose of L-arabinose of 200 g rats was respectively obtained as 1.25 g/d, 1.43 g/d, 1.61 g/d, 1.79 g/d, 1.96 g/d and 2.14 g/d (six groups in total), and then experiments were performed respectively.
Similarly, estimated values of the human body to sorbitol were respectively set to 5 g/d, 10 g/d, 15 g/d, 20 g/d, 25 g/d and 30 g/d (six groups in total) as the experimental range. […]

[3] = human daily intake, declared by some companies, no experimental data; cited from earlier work

Structure (SMILES) | maximum tolerated dose R of the human body [1] | maximum tolerated dose N of 200 g rat [2] | daily intake should not exceed [3]
O=C[C@H](O)[C@@H](O)[C@@H](O)CO [L-arabinose] | 90 g/day | 1.61 g/day | ≤ 120 g
OC[C@@H](O)[C@H](O)[C@@H](O)CO [xylitol] | 40 g/day | 0.71 g/day | –
OC[C@@H](O)[C@@H](O)[C@H](O)[C@@H](O)CO [sorbitol] | 20 g/day | 0.36 g/day | –
